Measurements from patent US12187782B2, “PDL1 peptides for use in cancer vaccines” (IO BIOTECH APS, priority 2016, dated 2025).
No end group written: not given here.

Assays:
[1] = system: cells from spleen and draining lymph nodes; assay: IFNγ-Elispot of spleen and dLN cells from DNFB-treated mice, stimulated ex vivo with peptide (Example 4); format: cell-based, C56BL/6 mice; details: not with control, 5 μg/ml peptide ex vivo
Description: A solution of 0.15% 2,4-dinitrofluorobenzene (DNFB; an allergen) in 1:4 olive oil/ace-tone (OOA) (or just OOA as a control) was painted on back of both ears of C56BL/6 mice for 3 consecutive days (days 0-2). On day 5 the mice were sacrificed and a single cell solution of the removed spleen and draining lymph nodes (dLNs) was made for further analysis by IFNγ-Elispot.
8-9×10^5 cells/well were stimulated ex vivo in Elispot plates with 5 μg/ml mPD-L1long1 (mLong1 from Example 3) or mPD-L1short (a part of the mLong1 peptide having the sequence […] (SEQ ID NO: 101)) for 18-20 hours. Spot count for the peptide stimulated wells was subtracted the background (spot count of wells with no peptide stimulation).
(§1) • Following sacrifice of mice, spleen (and draining lymph nodes (dLNs)) were removed. • Spleen and dLNs was smashed through a […] cell strainer into a 50 ml tube with media (RPMI+10% FCS+1% pen/strep) and washed for at 300 G for 5 minutes, repeated for dLNs. Splenocytes was lysed with RBC lysis buffer for 1 min and washed in media twice. • Cells were counted and transferred to IFNγ Ab-coated Elispot plates in cell number of 9×10^5 cells/well. Coating antibody: Anti-mouse IFN-g mAb AN18 (Mabtech cat no. 3321-3-1000). • Stimulatory peptides were added to designated wells in concentrations of 5 μg/ml. Control wells were not stimulated with peptide. • Elispot plates were developed after 18-20 hours. • Detection antibody Anti-mouse IFN-g mAb R4-6A2-Biotin (Mabtech cat no. 3321-6-1000). Avidin-enzyme conjugate (AP-Avidin; Calbiochem/Invitrogen Life Technologies) and enzyme substrate, NBT/BCIP (Invitrogen Life Technologies) used for visualization. • Spot count for peptide-stimulated wells was always subtracted the corresponding wells without peptide stimulation (the background) • Negative values were sat to zero.

[2] = system: CD8 T-cells specific for the minimal epitope PDL111; assay: ELISPOT with PDL111-specific CD8 T cells; format: cell-based, human
Excerpt: (§2) The ELISPOT technique enabled screening a high number of peptide antigens for T-cell recognition, despite the availability of relatively few T-cells. We used the ELISPOT assay to quantify peptide-specific, effector cells that secreted IFN-γ, as described in Example 1. We performed the assays according to the guidelines provided by the cancer immunotherapy immunoguiding program (CIP; cimt.eu/cimt/files/dl/cip_guidelines.pdf). To measure T-cell reactivity, nitrocellulose-bottomed 96-well plates (MultiScreen MSIPN4W; Millipore) were coated overnight with the relevant antibodies. The wells were washed and blocked with X-vivo medium for 2 h. The Tumor Infiltrating Lymphoctyes (TILs) were added at different cell concentrations in triplicate wells, with PD-L1 peptides or with control peptide, and incubated overnight. The following day, the wells were washed, and the relevant biotinylated secondary antibody (Mabtech) was added, followed by the avidin-enzyme conjugate (AP-Avidin; Calbiochem/Invitrogen Life Technologies); finally, we added the enzyme substrate, NBT/BCIP (Invitrogen Life Technologies) for visualization. The spots on the developed ELISPOT plates were analyzed on a CTL ImmunoSpot S6 Ultimate-V analyzer with Immunospot software, v5.1.
[…] We analysed the reactivity towards PDL111, PDL1242-264 ([…]— PDLong2, SEQ ID NO: 91), 10104.1 (—OH) and 10104.1 (NH). […]

[3] = system: splenocytes; assay: IFNγ-Elispot of splenocytes from IFNγ-injected mice, stimulated ex vivo with mPDL1 peptides (Example 3); format: cell-based, C56BL/6 mice; details: splenocytes after prior IFNγ injection; 5 μg/ml peptide ex vivo, 18-20 hours
Description: C56BL/6 mice were injected with 1 μg IFNγ in 200 μl PBS i.p (or no injection for control) two days apart (day 0+2) to simulate inflammation. On day 5 the mice were sacrificed and a single cell solution of the removed spleen was made for further analysis by IFNγ-Elispot.
9×10^5 splenocytes/well were stimulated ex vivo in Elispot plates with 5 μg/ml peptides from murine (m)PDL1 for 18-20 hours. Spot count for the peptide stimulated wells was subtracted the background (spot count of wells with no peptide stimulation).
as §1, with “Avidin-enzyme conjugate (AP-Avidin; Calbiochem/Invitrogen Life Technologies) and enzyme substrate, NBT/BCIP (Invitrogen Life Technologies) used for visualization. • Spot count for peptide-stimulated wells was always subtracted the corresponding wells without peptide stimulation (the background) • Negative values were sat to zero.” left out

[4] = system: PD-L1-specific T cells; assay: Vaccination of mice with mPD-L1long1, IFNγ-Elispot (Example 5); format: in vivo, C56BL/6 mice
Description: C56BL/6 mice were vaccinated subcutaneously (s.c) on the lower back with 100 μg mPD-L1long1 (mLong1 from Example 3) with or without Montanide as an adjuvant (only Montanide as a control) at day 0. On day 7 the mice were sacrificed and a single cell solution of the removed spleen was made for further analysis by IFNγ-Elispot.
9×10^5 splenocytes/well were stimulated ex vivo in Elispot plates with 5 μg/ml mPD-L1long1 or mPD-L1short for 18-20 hours. Spot count for the peptide stimulated wells was subtracted the background (spot count of wells with no peptide stimulation).
as §1

[5] = system: PBMCs from malignant melanoma patients; assay: Co-stimulation assay: PBMCs stimulated with DCvacc plus peptide, read by intracellular TNFα/IFNγ staining; format: cell-based, human; details: for CD4+ T cell reactivity toward DCvacc increased by co-stimulation (donors) / CD8+ T cell reactivity toward DCvacc increased by co-stimulation (donors): eight donors, vs control peptide
Description: PBMCs from malignant melanoma patients were stimulated with autologous DCvacc with ratio 1:10 DCvacc:PBMCs. […] Second stimulation with DCvacc was performed on day 7 and followed by peptide co-stimulation on day […] (120 U/mL) was added a day after each peptide co-stimulations. A week after second peptide co-stimulation the cultures were analyzed for DCvacc response using intracellular cytokine staining.
For detection of cell subpopulations producing cytokines (IFN-γ and TNF-α), PBMCs that were stimulated with DCvacc and co-stimulated with peptides for two weeks, were stimulated with DCvacc (ratio 1:10 DCvacc:PBMCs) for 5 hours at 37° C. with 5% CO2. GolgiPlug (BD) was added at a dilution of 1:200 after the first hour of incubation. After 4 additional hours cells were washed twice with PBS, stained fluorochrome conjugated antibodies for surface markers (CD3-Amcyan, CD4-PerCP and CD8-Pacific Blue, all from BD). Cells were washed one additional time and thereafter were fixed and permeabilized with Fixation/Permeabilization and Permeabilization Buffer (eBioscience), according to manufacturer's instructions. Cells were subsequently stained with fluorochrome-conjugated antibodies for intracellular cytokines. The following combinations were used: IFN-γ-PE-CY7 (BD), TNF-α-APC (eBioscience). […] Stained cells were analyzed using a BD FACSCanto II flow cytometer and further analysis was performed with BD FacsDiva Software.

[6] = system: tumor-infiltrating lymphocytes from 7 melanoma patients; assay: IFNγ ELISPOT on tumor-infiltrating lymphocytes (Example 2); format: cell-based, human
Excerpt: as §2

[7] = peptide-vaccinated mice (100 μg s.c.) compared to adjuvant alone, day 7
[8] = PBMCs before vaccination (baseline)

GIIFTACCHL (listed as Mus musculus) [mPD-L1short]
recognition by dLNs, IFNγ-Elispot [1]: recognized | recognition by splenocytes, IFNγ-Elispot [1]: recognized

Arg-Thr-His-Leu-Val-Ile-Leu-Gly-Ala-Ile-Leu-Leu-Cys-Leu-Gly-Val-Ala-Leu-Thr-Phe-Ile-Phe-Arg-Leu-Arg-Lys-Gly-Arg-NH2 (RTHLVILGAILLCLGVALTFIFRLRKGR-NH2) [IO104.1-NH2]
reactivity of PDL111-specific CD8 T cells, ELISPOT [2]: able to react

MRIFAGIIFTACCHLLRA (listed as Mus musculus) [mLong1]
recognition by T cells, IFNγ-Elispot [3]: most positive results | PD-L1-specific T cell response in the draining lymph nodes (DLNs) [4, 7]: strong | PD-L1-specific T cell response in the spleens [4, 7]: strong | PD-L1-specific response by IFNγ Elispot, ex vivo stimulation with mPD-L1long ([4]; vaccinated mice): increased | PD-L1-specific response by IFNγ Elispot, ex vivo stimulation with mPD-L1 short ([4]; vaccinated mice): increased | recognition by dLNs, IFNγ-Elispot [1]: recognized | recognition by splenocytes, IFNγ-Elispot [1]: recognized

WVLLGSILLFLIVVSTVLLFLRKQV (listed as Mus musculus) [mLong3]
recognition by T cells, IFNγ-Elispot [3]: most positive results

FMTYWHLLNAFTVTVPKDL (listed as Homo sapiens) [PDLong1]
CD4+ T cell reactivity toward DCvacc increased by co-stimulation (donors) ([5]; PBMCs after four vaccinations): all donors | CD8+ T cell reactivity toward DCvacc increased by co-stimulation (donors) ([5]; PBMCs after four vaccinations): five out of eight donors | CD4+ T cell reactivity toward DCvacc increased by co-stimulation (donors) [5, 8]: six out of eight donors | CD8+ T cell reactivity toward DCvacc increased by co-stimulation (donors) [5, 8]: seven out of eight donors | CD4+ T cells reacting against DCvacc compared to control peptide ([5]; all cultures, P=0.02): significantly greater extent | CD8+ T cells reacting against DCvacc compared to control peptide ([5]; all cultures, P=0.05): significantly greater extent | number of PBMCs that showed reactivity against DCvacc ([5]; cocultured with peptide compared to the control HIV epitope): increase

RTHLVILGAILLCLGVALTFIFRLRKGR (not fully specified; listed as Homo sapiens) [IO104.1, positions 238 to 265 of hPD-L1; C terminal acid or amide form]
T cell response, IFNγ ELISPOT (patients responding) [6]: three of the patients

Arg-Thr-His-Leu-Val-Ile-Leu-Gly-Ala-Ile-Leu-Leu-Cys-Leu-Gly-Val-Ala-Leu-Thr-Phe-Ile-Phe-Arg-Leu-Arg-Lys-Gly-Arg-OH (RTHLVILGAILLCLGVALTFIFRLRKGR-OH) [IO104.1-OH]
reactivity of PDL111-specific CD8 T cells, ELISPOT [2]: able to react
